Measurements from patent publication US11091460B2, “Syk inhibitor and use method therefor” (CHIA TAI TIANQING PHARMACEUTICAL GROUP CO., LTD., priority 2017, dated 2021).
Read-outs that look alike come from different tables or passages of the source.

Columns and labels:
AKT phosphorylation = test: In vitro test of the inhibition effect on AKT phosphorylation (ELISA, Ramos cells); type: cell-based
Description: Experimental Example 2: In Vitro Test of the Inhibition Effect of the Example Compounds on AKT Phosphorylation
• 2.1 Experimental Purpose: Intracellular protein kinase AKT phosphorylation detected by experiment was measured by enzyme-linked immunosorbent assay (ELISA), and the inhibition of the compound on protein kinase AKT phosphorylation was evaluated by an index of the half-cell inhibition concentration (IC50) value of the compound. • 2.2 Experimental Materials: • Cell line: Ramos cell line • Cell culture medium (RPMI1640, Invitrogen #22400-105; 10% serum Gibco #10099-141; L-glutamine 1×, Gibco #25030-081) • Experimental medium (without serum, RPM11640, Invitrogen #22400-105; L-glutamine 1×, Gibco #25030) • Lysis buffer (trishydroxymethylaminomethane hydrochloride, Invitrogen15567-1000 ml; sodium chloride, domestic; sodium deoxycholate, Sigma30970-25 G; polyethylene glycol octylphenyl ether, SigmaT9284-100 ml; dodecane sodium sulfonate, SigmaL3771; ethylenediaminetetraacetic acid, Invitrogen15575-038-100 ml; ultrapure water, MilliQ) • Protease inhibitor (Roche, 4693159001-30/BOX) • Phosphatase inhibitor mixture 2 (Sigma, P5726-5 ML) • Phosphatase inhibitor mixture 3 (Sigma, P0044-5 ML) • Goat Anti-Human immunoglobulin M (F(ab′)2 Goat Anti-Human IgM) (Jackson Immuno Research-109-006-129) • Phosphorylated AKT assay kit (Phospho-AKT 1/2/3 (ser473)) (TGR Bioscience, EKT002) • 10× Hank's balanced salt solution (Gibco #14065-056) • 96-well cell plate (Greiner #655090) • Compound V-well dilution plate (Axygen #WITP02280) • CO2 incubator (Thermo #371) • Centrifuge (Eppendorf #581 OR) • Vi-cell cell counter (Beckman Coulter) • Pipette (Eppendorf) • Pipette (Greiner) • Pipetting gun (Eppendorf) • Multi-purpose microplate reader (Envision Reader) • 2.3 Experimental procedures and methods: • a) Cell Seeding (Ramos Cells) • 1) The medium was preheated in a 37° C. water bath. Suspended cells and their culture solution were aspirated, centrifuged at 1000 rpm for 5 minutes. • 2) Aspirated the cell culture medium, added 10 mL of pre-warmed medium to the centrifuge tube, blew off the resuspended cells, pipette 1 mL of the cell suspension, and counted with Vi-cell; • 3) The Ramos cells were diluted with a medium to a density of 5×10^6/mL, and the diluted cells were added to a 96-well cell culture plate (100 μL/well) using a lance. Placed the cell plates in a 37° C., 5% CO2 incubator for overnight. • b) Cell starvation: • 1) After cultured the inoculation cells for overnight, centrifuged at 1000 rpm for 5 minutes on the next day, aspirated the original medium by a lance, added serum-free experimental medium, placed the cell plates in a 37° C., 5% CO2 incubator, and starved for overnight. • c) Compound preparation and dosing: • 1) The compound was diluted with dimethyl sulfoxide to give an initial concentration of 5 mM. A triple gradient dilution was done with compound V dilution plate to make 10 concentration points. • 2) Took another new compound V-well dilution plate, added 198 ul of serum-free experimental medium to each well, and then added 2 ul of the diluted compound above to each well, and mixed with a lance. […]

SYK kinase = target: T1, SYK kinase (Homo sapiens, UniProt P43405); test: In vitro test of the inhibition effect on SYK kinase (HTRF); type: biochemical; details: tyrosine kinase 0.0156 ng/μL, substrate 0.2 uM, ATP 2 uM, 23° C. 1 hour, read-out: Inhibit SYK kinase IC50
T1 construct: purchased Invitrogen PV3857
Description: Experimental Example 1: In Vitro Test of the Inhibition Effect of the Example Compounds on SYK Kinase
Adenosine triphosphate concentration was controlled at 2 uM. • 4) Loaded with a Multidrop automatic dispenser, and a mixture of tyrosinase solution and tyrosine kinase-substrate-biotin/adenosine triphosphate was added in an amount of 5 ul per well, and incubated at 23° C. for 1 hour. • c) Detection phase: • 1) Added 13.33 mL of ethylenediaminetetraacetic acid solution to the Detection Buffer in the kit, added the specified amount of […] (Eu)-labeled antibody and streptavidin XL-665, and prepared the detection solution. • 2) Loaded with a Multidrop automatic dispenser, and 10 uL of the detection solution per well, incubated at 23° C. for 1 hour. It terminated the reaction of the enzyme and substrate mixture. • 3) Reading after centrifugation on a multi-function microplate reader, • d) Data Analysis: Analyzed the data with XL-Fit, and calculated the IC50 value of the compound.

[1] = Homo sapiens, Ramos, Ramos cell line, compound 1 hour, goat anti-human IgM 10 ug/ml for 10 minutes, Phospho-AKT 1/2/3 (ser473) ELISA, read-out: Inhibit AKT phosphorylation IC50
[2] = Ramos cell line, compound 1 hour, goat anti-human IgM 10 ug/ml for 10 minutes, Phospho-AKT 1/2/3 (ser473) ELISA, read-out: Inhibit AKT phosphorylation IC50
[3] = Homo sapiens, Ramos, read-out: Inhibit AKT phosphorylation IC50 (nM)

IC50 (AKT phosphorylation; [1])	IC50 (SYK kinase)	IC50 (AKT phosphorylation; [2])	Compound	IC50 (AKT phosphorylation; [3])
	204 nM	750 nM	Cn1c(=O)c(Nc2ccc(N3CCOCC3)cn2)cc2cc(-c3cc[nH]n3)ccc21 [Example 2, 1-Methyl-3-((5-morpholinepyridin-2-yl)amino)-6-(1H-pyrazol-3-yl)quinoline-2(1H)-one]	
83.3 nM	20.2 nM		Cn1c(=O)c(Nc2ccc(N3CCOCC3)cc2)nc2cc(F)c(-c3cn[nH]c3)cc21 [Example 45, 6-Fluoro-1-methyl-3-((4-morpholinephenyl)amino)-7-(1H-pyrazol-4-yl)quinoxaline-2(1H)-one]	
255 nM	24.9 nM		Cn1c(=O)c(Nc2ccc(N3CCCC(C)(C(=O)O)C3)cn2)cc2c(F)c(-c3cc[nH]n3)ccc21 (stereo not drawn) [Example 17, 1-(6-((5-Fluoro-1-methyl-2-oxo-6-(1H-pyrazol-3-yl)-1,2-dihydroquinolin-3-yl)amine)pyridine-3-yl)-3-pipecoline-3-carboxylic acid]	
52.2 nM	5.1 nM		Cn1c(=O)c(Nc2ccc(N3CCS(=O)(=O)CC3)cc2)nc2ccc(-c3cn[nH]c3)cc21 [Example 35, 3-((4-(1,1-Dioxothiomorpholine)phenyl)amino)-1-methyl-7-(1H-pyrazol-4-yl)quinoxaline-2(1H)-one]	
388 nM	14.3 nM		Cn1c(=O)c(Nc2ccc(N3CCC[C@H](C(=O)O)C3)cn2)cc2c(F)c(-c3cc[nH]n3)ccc21 [Example 19, (3S)-1-[6-[[5-fluoro-1-methyl-2-oxa-6-(1H-pyrazol-3-yl)-1,2-dihydroquinolin-3-yl)amine]pyridin-3-yl]piperidine-3-carboxylic acid]	
114 nM	9.5 nM		Cn1c(=O)c(Nc2ccc(N3CCOCC3)cc2)nc2ccc(-c3cn[nH]c3)c(F)c21 [Example 46, 8-Fluoro-1-methyl-3-((4-morpholinephenyl)amino)-7-(1H-pyrazol-4-yl)quinoxaline-2(1H)-one]	
50 nM	4.2 nM		Cn1c(=O)c(Nc2ccc(N3CCOCC3)cc2)nc2ccc(-c3cn[nH]c3)cc21 [Example 26, 1-Methyl-3-((4-morpholinephenyl)amino)-7-(1H-pyrazol-4-yl)quinoxaline-2(1H)-one]	
97 nM	4.4 nM		Cn1c(=O)c(Nc2ccc(N3CCOCC3)cc2)nc2c(F)cc(-c3cn[nH]c3)cc21 [Example 44]	
323 nM	40.7 nM		Cn1c(=O)c(Nc2ccc(C3CCOCC3)cn2)cc2cc(-c3cc[nH]n3)ccc21 [Example 3]	
	8.9 nM	121 nM	Cn1c(=O)c(Nc2ccc(C(C)(O)C(F)(F)F)cn2)cc2c(F)c(-c3cc[nH]n3)ccc21 (single isomer, unassigned) [Example 25, 5-Fluoro-1-methyl-6-(1H-pyrazol-3-yl)-3-((5-(1,1,1-trifluoro-2-hydroxypropan-2-yl)pyridine-2-yl)amino)quinoline-2(1H)-one]	
169 nM	26.9 nM		Cn1c(=O)c(Nc2ccc(C3(F)COC3)cn2)cc2c(F)c(-c3cc[nH]n3)ccc21 [Example 23, 5-Fluoro-3-[[5-(3-fluorooxetan-3-yl)pyridin-2-yl]amino]-1-methyl-6-(1H-pyrazol-3-yl)quinoline-2(1H)-one]	
175 nM	12.3 nM		Cn1c(=O)c(Nc2ccc(C(C)(O)C(F)(F)F)cn2)cc2c(F)c(-c3cc[nH]n3)ccc21 (single isomer, unassigned) [Example 24, 5-Fluoro-1-methyl-6-(1H-pyrazol-3-yl)-3-((5-(1,1,1-trifluoro-2-hydroxypropan-2-yl)pyridine-2-yl)amino)quinoline-2(1H)-one]	
844 nM	26 nM		Cn1c(=O)c(Nc2ccc(N3CCC[C@@H](C(=O)O)C3)cn2)cc2c(F)c(-c3cc[nH]n3)ccc21 [Example 18, (3R)-1-[6-[[5-fluoro-1-methyl-2-oxa-6-(1H-pyrazol-3-yl)-1,2-dihydroquinolin-3-yl)amino]pyridin-3-yl]piperidine-3-carboxylic acid]	
197 nM	47.9 nM		Cn1c(=O)c(Nc2ccc(N)cn2)cc2c(F)c(-c3cc[nH]n3)ccc21 [Example 16, 3-((5-Aminopyridin-2-yl)amino)-5-fluoro-1-methyl-6-(1H-pyrazol-3-yl)quinoline-2(1H)-one]	
	212 nM		Cn1c(=O)c(Nc2ccc(N3CCOCC3)cc2)nc2ccc(-c3nccs3)cc21 [Example 32, 1-Methyl-3-((4-morpholinephenyl)amino)-7-(thiazol-2-yl)quinoxaline-2(1H)-one]	
	242 nM		Cn1c(=O)c(Nc2ccc(N3CCOCC3)cc2F)nc2ccc(-c3cn[nH]c3)cc21 [Example 47, 3-((2-Fluoro-4-morpholinephenyl)amino)-1-methyl-7-(1H-pyrazol-4-yl)quinoxaline-2(1H)-one]	
	38.5 nM		Cn1c(=O)c(Nc2ccc(C3(O)COC3)cn2)cc2c(F)c(-c3cc[nH]n3)ccc21 [Example 22, 5-Fluoro-3-[[5-(3-hydroxyoxetan-3-yl)pyridin-2-yl]amino]-1-methyl-6-(1H-pyrazol-3-yl)quinoline-2(1H)-one]	
	30 nM		Cn1c(=O)c(Nc2ccc(N3CCOCC3)cc2)nc2cc(Cl)c(-c3cn[nH]c3)cc21 [Example 42, 6-Chloro-1-methyl-3-((4-morpholinephenyl)amino)-7-(1H-pyrazol-4-yl)quinoxaline-2(1H)-one]	
	26 nM		CN1CCN(S(=O)(=O)c2ccc(Nc3nc4ccc(-c5cn[nH]c5)cc4n(C)c3=O)cc2)CC1 [Example 34, 1-Methyl-3-((4-((4-methylpiperazin-1-yl)sulfonyl)phenyl)amino)-7-(1H-pyrazol-4-yl)quinoxaline-2(1H)-one]	
	29.2 nM		Cn1c(=O)c(Nc2ccc(NC3CCOCC3)nc2)nc2ccc(-c3cn[nH]c3)cc21 [Example 56, 1-Methyl-7-(1H-pyrazol-4-yl)-3-((6-((tetrahydro-2H-pyran-4-yl)amino)pyridin-3-yl)amino)quinoxaline-2(1H)-one]	

Compound	IC50 (AKT phosphorylation; [1])	IC50 (SYK kinase)	IC50 (AKT phosphorylation; [2])	IC50 (AKT phosphorylation; [3])
Cn1c(=O)c(Nc2ccc(N3C4CCC3CNC4)cc2)nc2ccc(-c3cn[nH]c3)cc21 [Example 54, 3-[4-(3,8-Diazabicyclo[3.2.1]octane-8-yl)aniline]-1-methyl-7-(1H-pyrazol-4-yl)quinoxaline-2(1H)-one]	69 nM	5 nM		
Cn1c(=O)c(Nc2ccc(C3(O)CCC3)cn2)cc2c(F)c(-c3cc[nH]n3)ccc21 [Example 21]		22 nM		200 nM
Cn1c(=O)c(Nc2ccc(N3CCOCC3)cn2)cc2cc(-c3cc[nH]n3)c(F)cc21 [Example 6, 7-Fluoro-1-methyl-3-((5-morpholinepyridin-2-yl)amino)-6-(1H-pyrazol-3-yl)quinoline-2(1H)-one]		21.1 nM		446 nM
Cn1c(=O)c(Nc2ccc(N3CCOCC3)cc2)cc2cc(-c3cc[nH]n3)ccc21 [Example 1, 1-Methyl-3-((4-morpholinephenyl)amino)-6-(1H-pyrazol-3-yl) quinoline-2(1H)-one]		33.8 nM	248 nM	
